Results published in US20200101108A1, “METHODS OF TREATING T CELL EXHAUSTION BY INHIBITING OR MODULATING T CELL RECEPTOR SIGNALING” (THE BOARD OF TRUSTEES OF THE LE-LAND STANDFORD JUNIOR …, priority 2017, published 2020).

Assays:
HA-GD2.28z CAR T cells [1] = experiment: Cytokine release after expansion in drug and removal of drug before tumor co-culture; assay type: cell-based, human
HA-GD2.28z CAR T cells [2] = experiment: Incucyte cytotoxicity after expansion in drug and removal of drug before tumor co-culture; settings: expanded in drug, drug removed 18-24 hours before 72 hours co-culture
Lck = Lck (Homo sapiens, UniProt P06239); settings: cited from earlier work
Fyn = Fyn (Homo sapiens, UniProt P06241); settings: cited from earlier work
Src kinases = settings: cited from earlier work
HA-GD2.28z CAR T cells [3] = experiment: Cytokine release assay (ELISA), CAR T cells co-cultured with GD2-overexpressing nalm6 in presence of drug; settings: drug present during 24 hours co-culture
CD19.28z CAR T cells = experiment: CAR T cell activation and degranulation (CD69/CD107a) on co-culture with Nalm6 tumor cells in presence of drug; settings: nanomolar levels; 6 hours co-culture with tumor
[4] = molecular target: CD19 (Homo sapiens (Human)) (UniProt P15391)
GD2.28z.FKBP CAR = experiment: Regulation of GD2.28z.FKBP CAR surface expression by shield-1 (FACS); assay type: cell-based, human; settings: adding or subtracting shield-1 in culture medium
Source text: FIG. 1: Characterization of the GD2.28z.FKBP CAR. T cells were transduced with lentivirus encoding the GD2.28z.FKBP CAR on day 1 after activation and subsequently cultured with various concentrations of shield-1 in the growth medium. On day 7, CAR expression was quantified via FACS.

Sequence of Fyn (P06241 whole entry, species assumed): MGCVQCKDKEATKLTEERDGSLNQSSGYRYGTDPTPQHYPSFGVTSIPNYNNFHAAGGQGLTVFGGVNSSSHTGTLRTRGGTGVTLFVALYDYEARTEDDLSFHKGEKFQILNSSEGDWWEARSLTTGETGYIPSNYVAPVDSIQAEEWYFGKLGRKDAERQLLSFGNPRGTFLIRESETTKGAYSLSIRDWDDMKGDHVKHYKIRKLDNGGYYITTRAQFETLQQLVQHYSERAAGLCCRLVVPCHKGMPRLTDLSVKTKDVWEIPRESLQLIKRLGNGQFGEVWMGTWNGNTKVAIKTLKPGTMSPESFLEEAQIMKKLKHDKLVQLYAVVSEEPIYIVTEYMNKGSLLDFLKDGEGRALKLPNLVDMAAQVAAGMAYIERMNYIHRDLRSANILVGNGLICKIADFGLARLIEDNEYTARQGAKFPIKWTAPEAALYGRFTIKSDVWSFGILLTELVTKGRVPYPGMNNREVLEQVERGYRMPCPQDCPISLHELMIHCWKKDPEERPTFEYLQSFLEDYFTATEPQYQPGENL
Sequence of Lck (P06239 whole entry, species assumed): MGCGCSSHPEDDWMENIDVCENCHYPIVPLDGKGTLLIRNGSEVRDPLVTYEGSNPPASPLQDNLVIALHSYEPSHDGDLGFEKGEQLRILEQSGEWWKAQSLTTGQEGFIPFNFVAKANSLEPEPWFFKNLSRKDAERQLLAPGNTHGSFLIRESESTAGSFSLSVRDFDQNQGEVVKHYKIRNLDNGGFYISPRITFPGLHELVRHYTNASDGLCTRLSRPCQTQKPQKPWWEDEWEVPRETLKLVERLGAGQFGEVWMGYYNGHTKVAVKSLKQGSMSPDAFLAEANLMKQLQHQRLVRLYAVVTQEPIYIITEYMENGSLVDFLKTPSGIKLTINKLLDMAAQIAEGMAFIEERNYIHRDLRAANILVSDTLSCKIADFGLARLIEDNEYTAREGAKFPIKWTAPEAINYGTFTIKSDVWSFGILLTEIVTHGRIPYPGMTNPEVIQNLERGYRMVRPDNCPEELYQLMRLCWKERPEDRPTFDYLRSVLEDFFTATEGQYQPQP

## Cc1ccc(C(=O)Nc2ccc(CN3CCN(C)CC3)c(C(F)(F)F)c2)cc1C#Cc1cnc2cccnn12 [ponatinib, 3-(imidazo[1,2-b]pyridazin-3-ylethynyl)-4-methyl-N-(4-((4-methylpiperazin-1-yl)methyl)-3-(trifluoromethyl)phenyl)benzamide]
HA-GD2.28z CAR T cells [1]
  reversibility of the inhibitory effect on CAR T cell function: reversible
HA-GD2.28z CAR T cells [1]; expanded in drug, drug removed 18-24 hours before 24 hours co-culture
  CAR T cell cytokine secretion: dose-dependently augmented
HA-GD2.28z CAR T cells [2]
  cytotoxic response: more potent cytotoxic response
Lck
  inhibition of Lck: can bind to and inhibit Lck
Fyn
  inhibition of Fyn: does not affect the function of Fyn or Src kinases
Src kinases
  inhibition of Src kinases: does not affect the function of Fyn or Src kinases
HA-GD2.28z CAR T cells [3]
  IFNγ secretion in response to tumor: potently inhibited
  IL-2 secretion in response to tumor: potently inhibited
CD19.28z CAR T cells
  activation and degranulation (CD69 and CD107a co-expression): potently inhibited activation and degranulation of CAR T cells in a dose-dependent manner

## CD19.28z CAR (FMC63 scFv)
[4]
  CD69 and CD107a surface expression (FACS) after 6 h co-culture: 80%

## CC[C@H](C(=O)N1CCCC[C@H]1C(=O)O[C@H](CCc1ccc(OC)c(OC)c1)c1cccc(OCCN2CCOCC2)c1)c1cc(OC)c(OC)c(OC)c1 [shield-1]
GD2.28z.FKBP CAR
  CAR surface expression: rapidly and dose-dependently regulated
